Patent US20060069132A1, “Azolecarboxamide herbicides” (priority 2004, published 2006)
Read-outs that look alike come from different tables or passages of the source.

Legend:
giant foxtail = experiment: Test B pre-/postemergence herbicide test; format: in vivo, Setaria faberi; conditions: for pest or weed control at 125 g/ha / pest or weed control at 500 g/ha: Setaria faberi, 336 h
Summary of the method: (§1)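 Response was scored visually 13 to 15 days after treatment against untreated greenhouse controls, 0 meaning no effect and 100 complete control. Formulations (solvent mixture plus surfactant) went onto soil after planting, onto foliage of 1- to 4-leaf plants, and onto 2-leaf plants in a flooded paddy set including rice and barnyardgrass.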

pigweed = experiment: Test B pre-/postemergence herbicide test; format: in vivo, Amaranthus retroflexus; conditions: for pest or weed control at 125 g/ha / pest or weed control at 500 g/ha: Amaranthus retroflexus, 336 h
Summary of the method: as §1

Surinam grass = experiment: Test C pre-/postemergence herbicide test; format: in vivo, Urochloa decumbens
Summary of the method: (§2)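 Greenhouse-grown plants were evaluated visually 12 to 14 days after treatment, with 100 meaning complete control and 0 no effect. Application was preemergence, or postemergence at 2 to 18 cm.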

large crabgrass = experiment: Test C pre-/postemergence herbicide test; format: in vivo, Digitaria sanguinalis
Summary of the method: as §2

goosegrass = experiment: Test C pre-/postemergence herbicide test; format: in vivo, Eleusine indica
Summary of the method: as §2

kochia = experiment: Test C pre-/postemergence herbicide test; format: in vivo, Kochia scoparia
Summary of the method: as §2

lambsquarters = experiment: Test C pre-/postemergence herbicide test; format: in vivo, Chenopodium album
Summary of the method: as §2

common ragweed = experiment: Test C pre-/postemergence herbicide test; format: in vivo, Ambrosia elatior; set-up: key to Plant response rating, Ragweed: 0 = no effect, 100 = complete control
Summary of the method: as §2

[1] = 125 g ai/ha, 0 = no effect, 100 = complete control, preemergence
[2] = 500 g ai/ha, visual rating 0-100, 0 no effect, 100 complete control, preemergence
[3] = postemergence, 125 g ai/ha, visual rating, scale 0 (no effect) to 100 (complete control)
[4] = postemergence, 500 g ai/ha, visual rating, scale 0 (no effect) to 100 (complete control)
[5] = 62 g ai/ha, preemergence, scale 0 to 100
[6] = 125 g ai/ha, scale 0 (no effect) to 100 (complete control), visual, 12 to 14 days, preemergence
[7] = 250 g ai/ha, scale 0-100, preemergence
[8] = Preemergence, 500 g ai/ha, scale 0 to 100, 0 no effect, 100 complete control

Q: CCN(CC)C(=O)c1cccc(NC(=O)c2sc(C(C)(C)C)nc2C)c1 [Compound 199] was tested. Which “Foxtail, Giant plant response rating (0 to 100 scale)” value (giant foxtail; [1]) did it give?
A: 10

Q: What about the “Plant response rating, Foxtail, Giant” value (giant foxtail; [2]) of the same compound?
A: 100

Q: And the “Foxtail, Giant plant response rating” value (giant foxtail; [3])?
A: 10

Q: What about the “Foxtail, Giant plant response rating” value (giant foxtail; [4]) of the same compound?
A: 10

Q: What about the “Pigweed plant response rating (0 to 100 scale)” value (pigweed; [1]) of the same compound?
A: 90

Q: And the “Plant response rating, Pigweed” value (pigweed; [2])?
A: 100

Q: And the “Pigweed plant response rating” value (pigweed; [3])?
A: 10

Q: And the “Pigweed plant response rating” value (pigweed; [4])?
A: 40

Q: And the “Plant response rating, Surinam Grass” value (Surinam grass; [5])?
A: 0

Q: And the “Plant response rating, Surinam Grass” value (Surinam grass; [6])?
A: 0

Q: What about the “Plant response rating, Surinam Grass” value (Surinam grass; [7]) of the same compound?
A: 30

Q: What about the “Surinam Grass plant response rating” value (Surinam grass; [8]) of the same compound?
A: 75

Q: And the “Plant response rating, Crabgrass, Large” value (large crabgrass; [5])?
A: 10

Q: And the “Plant response rating, Crabgrass, Large” value (large crabgrass; [6])?
A: 90

Q: What about the “Plant response rating, Crabgrass, Large” value (large crabgrass; [7]) of the same compound?
A: 90

Q: What about the “Crabgrass, Large plant response rating” value (large crabgrass; [8]) of the same compound?
A: 95

Q: And the “Plant response rating, Goosegrass” value (goosegrass; [5])?
A: 5

Q: What about the “Plant response rating, Goosegrass” value (goosegrass; [6]) of the same compound?
A: 70

Q: And the “Plant response rating, Goosegrass” value (goosegrass; [7])?
A: 90

Q: And the “Goosegrass plant response rating” value (goosegrass; [8])?
A: 95

Q: What about the “Plant response rating, Kochia” value (kochia; [5]) of the same compound?
A: 80

Q: And the “Plant response rating, Kochia” value (kochia; [6])?
A: 85

Q: What about the “Plant response rating, Kochia” value (kochia; [7]) of the same compound?
A: 90

Q: And the “Kochia plant response rating” value (kochia; [8])?
A: 90

Q: What about the “Plant response rating, Lambsquarters” value (lambsquarters; [5]) of the same compound?
A: 80

Q: And the “Plant response rating, Lambsquarters” value (lambsquarters; [6])?
A: 95

Q: What about the “Plant response rating, Lambsquarters” value (lambsquarters; [7]) of the same compound?
A: 100

Q: What about the “Lambsquarters plant response rating” value (lambsquarters; [8]) of the same compound?
A: 100

Q: What about the “Plant response rating, Ragweed” value (common ragweed; [5]) of the same compound?
A: 55

Q: What about the “Plant response rating, Ragweed” value (common ragweed; [6]) of the same compound?
A: 60

Q: And the “Plant response rating, Ragweed” value (common ragweed; [7])?
A: 80

Q: And the “Ragweed plant response rating” value (common ragweed; [8])?
A: 80

Q: What does the source list for CCNC(=O)c1cccc(NC(=O)c2nn(C(C)(C)C)cc2Br)c1 [Compound 221, 4-bromo-1-(1,1-dimethylethyl)-N-[3-[(ethylamino)carbonyl]phenyl]-1H-pyrazole-3-carboxamide]?
A: pest or weed control at 125 g/ha (giant foxtail; post-emergence, postemergence, 125 g ai/ha, visual rating, scale 0 (no effect) to 100 (complete control), read-out: Foxtail, Giant plant response rating): 10%; pest or weed control at 500 g/ha (giant foxtail; post-emergence, postemergence, 500 g ai/ha, visual rating, scale 0 (no effect) to 100 (complete control), read-out: Foxtail, Giant plant response rating): 10%; pest or weed control at 125 g/ha (giant foxtail; pre-emergence, 125 g ai/ha, 0 = no effect, 100 = complete control, read-out: Foxtail, Giant plant response rating (0 to 100 scale)): 0%; pest or weed control at 500 g/ha (giant foxtail; pre-emergence, 500 g ai/ha, visual rating, 0 = no effect, 100 = complete control, read-out: Plant response rating, Foxtail, Giant): 70%; pest or weed control at 125 g/ha (pigweed; post-emergence, postemergence, 125 g ai/ha, visual rating, scale 0 (no effect) to 100 (complete control), read-out: Pigweed plant response rating): 10%; pest or weed control at 500 g/ha (pigweed; post-emergence, postemergence, 500 g ai/ha, visual rating, scale 0 (no effect) to 100 (complete control), read-out: Pigweed plant response rating): 20%; pest or weed control at 125 g/ha (pigweed; pre-emergence, 125 g ai/ha, 0 = no effect, 100 = complete control, read-out: Pigweed plant response rating (0 to 100 scale)): 50%; pest or weed control at 500 g/ha (pigweed; pre-emergence, 500 g ai/ha, visual rating, 0 = no effect, 100 = complete control, read-out: Plant response rating, Pigweed): 100%; pest or weed control at 62 g/ha (Surinam grass; Urochloa decumbens, pre-emergence, 312 h, 62 g ai/ha, preemergence, scale 0 to 100, read-out: Plant response rating, Surinam Grass): 0%; pest or weed control at 250 g/ha (Surinam grass; Urochloa decumbens, pre-emergence, 312 h, 250 g ai/ha, scale 0-100, read-out: Plant response rating, Surinam Grass): 10%; pest or weed control at 500 g/ha (Surinam grass; Urochloa decumbens, pre-emergence, 312 h, 500 g ai/ha, scale 0 to 100 (0 no effect, 100 complete control), visual, 12 to 14 days, read-out: Plant response rating, Surinam Grass): 45%; pest or weed control at 62 g/ha (large crabgrass; Digitaria sanguinalis, pre-emergence, 312 h, 62 g ai/ha, preemergence, scale 0 to 100, read-out: Plant response rating, Crabgrass, Large): 0%; pest or weed control at 125 g/ha (large crabgrass; Digitaria sanguinalis, pre-emergence, 312 h, 125 g ai/ha, scale 0 (no effect) to 100 (complete control), visual, 12 to 14 days, read-out: Plant response rating, Crabgrass, Large): 100%; pest or weed control at 250 g/ha (large crabgrass; Digitaria sanguinalis, pre-emergence, 312 h, 250 g ai/ha, scale 0-100, read-out: Plant response rating, Crabgrass, Large): 100%; pest or weed control at 500 g/ha (large crabgrass; Digitaria sanguinalis, pre-emergence, 312 h, 500 g ai/ha, scale 0 to 100 (0 no effect, 100 complete control), visual, 12 to 14 days, read-out: Plant response rating, Crabgrass, Large): 100%; pest or weed control at 62 g/ha (goosegrass; Eleusine indica, pre-emergence, 312 h, 62 g ai/ha, preemergence, scale 0 to 100, read-out: Plant response rating, Goosegrass): 0%; pest or weed control at 125 g/ha (goosegrass; Eleusine indica, pre-emergence, 312 h, 125 g ai/ha, scale 0 (no effect) to 100 (complete control), visual, 12 to 14 days, read-out: Plant response rating, Goosegrass): 0%; pest or weed control at 250 g/ha (goosegrass; Eleusine indica, pre-emergence, 312 h, 250 g ai/ha, scale 0-100, read-out: Plant response rating, Goosegrass): 0%; pest or weed control at 500 g/ha (goosegrass; Eleusine indica, pre-emergence, 312 h, 500 g ai/ha, scale 0 to 100 (0 no effect, 100 complete control), visual, 12 to 14 days, read-out: Plant response rating, Goosegrass): 50%; pest or weed control at 62 g/ha (kochia; Bassia scoparia, pre-emergence, 62 g ai/ha, preemergence, scale 0 to 100, read-out: Plant response rating, Kochia): 0%; pest or weed control at 125 g/ha (kochia; Bassia scoparia, pre-emergence, 125 g ai/ha, scale 0 (no effect) to 100 (complete control), visual, 12 to 14 days, read-out: Plant response rating, Kochia): 0%; pest or weed control at 250 g/ha (kochia; Bassia scoparia, pre-emergence, 250 g ai/ha, scale 0-100, read-out: Plant response rating, Kochia): 65%; pest or weed control at 500 g/ha (kochia; Bassia scoparia, pre-emergence, 500 g ai/ha, scale 0 to 100 (0 no effect, 100 complete control), visual, 12 to 14 days, read-out: Plant response rating, Kochia): 100%; pest or weed control at 62 g/ha (lambsquarters; Chenopodium album, pre-emergence, 62 g ai/ha, preemergence, scale 0 to 100, read-out: Plant response rating, Lambsquarters): 0%; pest or weed control at 125 g/ha (lambsquarters; Chenopodium album, pre-emergence, 125 g ai/ha, scale 0 (no effect) to 100 (complete control), visual, 12 to 14 days, read-out: Plant response rating, Lambsquarters): 20%; pest or weed control at 250 g/ha (lambsquarters; Chenopodium album, pre-emergence, 250 g ai/ha, scale 0-100, read-out: Plant response rating, Lambsquarters): 90%; pest or weed control at 500 g/ha (lambsquarters; Chenopodium album, pre-emergence, 500 g ai/ha, scale 0 to 100 (0 no effect, 100 complete control), visual, 12 to 14 days, read-out: Plant response rating, Lambsquarters): 100%; pest or weed control at 62 g/ha (common ragweed; Ambrosia artemisiifolia, pre-emergence, 62 g ai/ha, preemergence, scale 0 to 100, read-out: Plant response rating, Ragweed): 0%; pest or weed control at 500 g/ha (common ragweed; Ambrosia artemisiifolia, pre-emergence, 500 g ai/ha, scale 0 to 100 (0 no effect, 100 complete control), visual, 12 to 14 days, read-out: Plant response rating, Ragweed): 60%
